# Reference: patent publication US5834259A, “Process and composition for preparing D-aspartic acid” (Monsanto Company, priority 1996, dated 1998)
# Assays:
# Format in all cases: biochemical, E. coli K12
# [1] = target: T1, L-aspartate-α-decarboxylase (Escherichia coli, UniProt P0A790); test: Re-treatment of Example 3 supernatant fluid with fresh cells (Example 4); conditions: 37° C.
# T1 construct: expressed in transfected cells; host or cells: E. coli W3110 transformed with pIF309 = strain NS3291 (ATCC 98675), whole cells
# From the text: In all of the Examples herein, D- and L-aspartic acid isomers were quantified by HPLC using the following precolumn derivatization method. Aspartic acid was converted into diastereomers using ortho-phthalaldehyde and N-acetyl-L-cysteine. Separation of the diastereomers was achieved on a Supelcosil™ LC-18DB, 3μ, 150×4.6 mm column using a mobile phase of A: 20% methanol/80% triethylamine phosphate and B: methanol, and a step gradient as follows: […]
# In this Example the supernatant fluid from Example 3 was re-treated with fresh cells. The reaction from Example 3, stopped at 68 hours, was centrifuged for 45 minutes in a GS-3 rotor at 7000 rpm. The supernatant fluid, 990 ml, was separated from the cells. 963 ml of this supernatant fluid was mixed with 137 ml fresh cells and placed in a 2 L fermentor. Bioconversion took place with mixing at 300 rpm, without automatic pH control and at a temperature of 37° C. Samples, approximately 1 ml, were removed over time and analyzed as in Example 3.
# [2] = target: T1, L-aspartate-α-decarboxylase; test: 1.0M D/L-aspartate, 100 g/l cells, reaction A (Example 6); conditions: for concentration in supernatant fluid: 1.0M, 100 g/l cells, 37° C.
# Procedure: 1.0M D/L-aspartate was tested as a substrate for two enzyme cell loads, 100 g/l cells, referred to here as reaction "A", and 50 g/l cells, referred to here as reaction "B".
# 133.1 g of D/L-aspartic acid was dissolved in approximately 600 ml deionized H2 O and pH was adjusted to 7.0 with NaOH, using 100 ml of 10N NaOH and a small amount of 1.0N NaOH. The substrate for reaction A was brought to 963 ml with deionized H2 O. The reaction was started with 137 ml cells that were stored in the cold room. For reaction B, the substrate was brought to a volume of 981.5 ml. The reaction was started with […] cells.
# Both reactions were carried out in 2 L fermentors at pH 7.0 without constant adjustments and at 37° C. Samples were removed over time, centrifuged and the supernatant fluid was diluted and submitted for D- and L-aspartic acid HPLC analysis.
# [3] = target: T1, L-aspartate-α-decarboxylase; test: NH4OH neutralized 1.0M D/L-aspartate substrate (Example 7); conditions: for concentration in supernatant fluid / percent remaining: 1.0M, NH4OH neutralized, 37° C.
# Procedure: Cells were stored frozen at -80° C. 133.1 g (1 mol) D/L-aspartic acid was dissolved in approximately 600 ml deionized H2 O and adjusted to a pH of about 7 with concentrated NH4 OH. The final volume of substrate was brought to 963 ml to which was added 137 ml cells, freshly thawed. The mixture was placed in the 2 L fermentor and the temperature adjusted to 37° C. No automatic pH control was used, however, the pH was monitored as samples were removed and the pH adjusted with 50% NH4 OH. Samples, approximately 1 ml, were removed periodically, centrifuged, and the supernatant fluid was stored frozen prior to diluting and HPLC analysis.
# [4] = target: T1, L-aspartate-α-decarboxylase; test: Activity towards D/L-glutamate and D/L-alanine, D/L-aspartate as control (Example 8); conditions: for concentration in supernatant fluid / percent remaining: racemate substrate, pH 7.0
# Procedure: D/L-aspartate was run as a control.
# Substrates were prepared by dissolving solid amino acid racemate in approximately 75 ml deionized H2 O and adjusting the pH to 7.0 with 10N NaOH. The volume was then brought to 100 ml with deionized H2 O. The cells used were stored frozen for about 1 month and then thawed and stored in a refrigerator for about 1 month prior to running the experiments.
# The reaction was run the same as described in the prior Examples. Samples of supernatant fluid, approximately 0.20 ml, were removed over time, centrifuged and stored frozen before analysis by HPLC as described in the prior Examples.
smiles,measurement,setting,value
"N[C@H](CC(=O)O)C(=O)O [D-Asp, D-aspartic acid]",concentration in supernatant fluid,[1]; 0.0000 hr,21.450 mg/mL
same,concentration in supernatant fluid,[1]; 2.7500 hr,21.350 mg/mL
same,percent remaining,[1]; 2.7500 hr,99.534%
same,concentration in supernatant fluid,[1]; 13.500 hr,21.190 mg/mL
same,percent remaining,[1]; 13.500 hr,98.788%
same,concentration in supernatant fluid,[1]; 15.000 hr,20.770 mg/mL
same,percent remaining,[1]; 15.000 hr,96.830%
same,concentration in supernatant fluid,[1]; 19.500 hr,21.480 mg/mL
same,percent remaining,[1]; 19.500 hr,100.14%
same,concentration in supernatant fluid,[1]; 23.500 hr,20.880 mg/mL
same,percent remaining,[1]; 23.500 hr,97.343%
same,concentration in supernatant fluid,[1]; 39.000 hr,19.080 mg/mL
same,percent remaining,[1]; 39.000 hr,88.951%
same,concentration in supernatant fluid,[1]; 47.000 hr,17.280 mg/mL
same,percent remaining,[1]; 47.000 hr,80.559%
same,concentration in supernatant fluid,[1]; 51.750 hr,17.010 mg/mL
same,percent remaining,[1]; 51.750 hr,79.301%
same,concentration in supernatant fluid,[1]; 68.500 hr,14.900 mg/mL
same,percent remaining,[1]; 68.500 hr,69.464%
same,concentration in supernatant fluid,[2]; 0.0000 hr,53.600 mg/mL
same,concentration in supernatant fluid,[2]; 2.0000 hr,50.680 mg/mL
same,concentration in supernatant fluid,[2]; 4.5000 hr,44.920 mg/mL
same,concentration in supernatant fluid,[2]; 7.0000 hr,42.260 mg/mL
same,concentration in supernatant fluid,[2]; 22.500 hr,35.680 mg/mL
same,concentration in supernatant fluid,[2]; 24.000 hr,34.420 mg/mL
same,concentration in supernatant fluid,[2]; 31.000 hr,32.660 mg/mL
same,concentration in supernatant fluid,[2]; 37.500 hr,27.950 mg/mL
same,concentration in supernatant fluid,[2]; 47.000 hr,20.710 mg/mL
same,concentration in supernatant fluid,[2]; 50.500 hr,18.490 mg/mL
same,concentration in supernatant fluid,[2]; 53.800 hr,13.730 mg/mL
same,concentration in supernatant fluid,[2]; 58.000 hr,13.410 mg/mL
same,concentration in supernatant fluid,[2]; 70.000 hr,6.1300 mg/mL
same,concentration in supernatant fluid,[2]; 72.000 hr,5.3900 mg/mL
same,concentration in supernatant fluid,[3]; 0.0000 hr,55.260 mg/mL
same,concentration in supernatant fluid,[3]; 3.0000 hr,54.670 mg/mL
same,percent remaining,[3]; 3.0000 hr,98.932%
same,concentration in supernatant fluid,[3]; 6.0000 hr,49.100 mg/mL
same,percent remaining,[3]; 6.0000 hr,88.853%
same,concentration in supernatant fluid,[3]; 9.0000 hr,47.810 mg/mL
same,percent remaining,[3]; 9.0000 hr,86.518%
same,concentration in supernatant fluid,[3]; 19.000 hr,43.490 mg/mL
same,percent remaining,[3]; 19.000 hr,78.701%
same,concentration in supernatant fluid,[3]; 23.500 hr,39.120 mg/mL
same,percent remaining,[3]; 23.500 hr,70.793%
same,concentration in supernatant fluid,[3]; 28.000 hr,36.290 mg/mL
same,percent remaining,[3]; 28.000 hr,65.671%
same,concentration in supernatant fluid,[3]; 32.500 hr,33.540 mg/mL
same,percent remaining,[3]; 32.500 hr,60.695%
same,concentration in supernatant fluid,[3]; 43.000 hr,30.370 mg/mL
same,percent remaining,[3]; 43.000 hr,54.958%
same,concentration in supernatant fluid,[3]; 49.000 hr,21.580 mg/mL
same,percent remaining,[3]; 49.000 hr,39.052%
same,concentration in supernatant fluid,[4]; 0 hr,29.890 mg/mL
same,concentration in supernatant fluid,[4]; 3.5 hr,29.850 mg/mL
same,percent remaining,[4]; 3.5 hr,99.866%
same,concentration in supernatant fluid,[4]; 8.5 hr,29.900 mg/mL
same,percent remaining,[4]; 8.5 hr,100.03%
same,concentration in supernatant fluid,[4]; 24 hr,29.740 mg/mL
same,percent remaining,[4]; 24 hr,99.498%
same,concentration in supernatant fluid,[4]; 55 hr,30.120 mg/mL
same,percent remaining,[4]; 55 hr,100.77%
"N[C@@H](CC(=O)O)C(=O)O [L-Asp, L-aspartic acid]",concentration in supernatant fluid,[1]; 0.0000 hr,0.43 mg/mL
same,concentration in supernatant fluid,"[1]; 0.0000 hr, listed as L-aspartic acid",0.43 mg/mL
same,concentration in supernatant fluid,[1]; 2.7500 hr,0.11 mg/mL
same,percent remaining,[1]; 2.7500 hr,25.581%
same,concentration in supernatant fluid,[1]; 13.500 hr,0.09 mg/mL
same,percent remaining,[1]; 13.500 hr,20.930%
same,concentration in supernatant fluid,[1]; 15.000 hr,0.08 mg/mL
same,percent remaining,[1]; 15.000 hr,18.605%
same,concentration in supernatant fluid,[1]; 19.500 hr,0.09 mg/mL
same,percent remaining,[1]; 19.500 hr,20.930%
same,concentration in supernatant fluid,[1]; 23.500 hr,0.07 mg/mL
same,percent remaining,[1]; 23.500 hr,16.279%
same,concentration in supernatant fluid,"[1]; 23.500 hr, listed as L-aspartic acid",0.07 mg/mL
same,concentration in supernatant fluid,[1]; 39.000 hr,0.1 mg/mL
same,percent remaining,[1]; 39.000 hr,23.256%
same,concentration in supernatant fluid,[1]; 47.000 hr,0.16 mg/mL
same,percent remaining,[1]; 47.000 hr,37.209%
same,concentration in supernatant fluid,[1]; 51.750 hr,0.23 mg/mL
same,percent remaining,[1]; 51.750 hr,53.488%
same,concentration in supernatant fluid,[1]; 68.500 hr,0.55 mg/mL
same,percent remaining,[1]; 68.500 hr,127.91%
same,concentration in supernatant fluid,"[1]; 68.500 hr, listed as L-aspartic acid",0.55 mg/mL
same,concentration in supernatant fluid,[2]; 0.0000 hr,54.850 mg/mL
same,concentration in supernatant fluid,"[2]; 0.0000 hr, listed as L-aspartate",53.6 mg/mL
same,concentration in supernatant fluid,[2]; 2.0000 hr,49.340 mg/mL
same,concentration in supernatant fluid,[2]; 4.5000 hr,50.710 mg/mL
same,concentration in supernatant fluid,[2]; 7.0000 hr,50.230 mg/mL
same,concentration in supernatant fluid,[2]; 22.500 hr,54.490 mg/mL
same,concentration in supernatant fluid,[2]; 24.000 hr,50.780 mg/mL
same,concentration in supernatant fluid,[2]; 31.000 hr,51.450 mg/mL
same,concentration in supernatant fluid,[2]; 37.500 hr,53.850 mg/mL
same,concentration in supernatant fluid,[2]; 47.000 hr,52.370 mg/mL
same,concentration in supernatant fluid,[2]; 50.500 hr,51.080 mg/mL
same,concentration in supernatant fluid,[2]; 53.800 hr,46.500 mg/mL
same,concentration in supernatant fluid,[2]; 58.000 hr,50.040 mg/mL
same,concentration in supernatant fluid,[2]; 70.000 hr,52.400 mg/mL
same,concentration in supernatant fluid,[2]; 72.000 hr,50.430 mg/mL
same,concentration in supernatant fluid,"[2]; 72.000 hr, listed as L-aspartate",5.39 mg/mL
same,reduction of L-aspartate,"[2]; after 72.0 hours, 1.0M substrate",90%
same,concentration in supernatant fluid,[3]; 0.0000 hr,55.740 mg/mL
same,concentration in supernatant fluid,[3]; 3.0000 hr,53.380 mg/mL
same,percent remaining,[3]; 3.0000 hr,95.766%
same,concentration in supernatant fluid,[3]; 6.0000 hr,56.370 mg/mL
same,percent remaining,[3]; 6.0000 hr,101.13%
same,concentration in supernatant fluid,[3]; 9.0000 hr,56.680 mg/mL
same,percent remaining,[3]; 9.0000 hr,101.69%
same,concentration in supernatant fluid,[3]; 19.000 hr,59.270 mg/mL
same,percent remaining,[3]; 19.000 hr,106.33%
same,concentration in supernatant fluid,[3]; 23.500 hr,54.930 mg/mL
same,percent remaining,[3]; 23.500 hr,98.547%
same,concentration in supernatant fluid,[3]; 28.000 hr,52.620 mg/mL
same,percent remaining,[3]; 28.000 hr,94.403%
same,concentration in supernatant fluid,[3]; 32.500 hr,50.900 mg/mL
same,percent remaining,[3]; 32.500 hr,91.317%
same,concentration in supernatant fluid,[3]; 43.000 hr,53.520 mg/mL
same,percent remaining,[3]; 43.000 hr,96.017%
same,percent remaining,[3]; 49.000 hr,91.676%
same,rate of L-Asp utilization,[3]; NH4+ salt as compared to the Na+ salt,slower
same,substrate specificity of the enzyme,[4],the only substrate for the enzyme
same,concentration in supernatant fluid,[4]; 0 hr,26.810 mg/mL
same,concentration in supernatant fluid,[4]; 3.5 hr,14.050 mg/mL
same,percent remaining,[4]; 3.5 hr,52.406%
same,concentration in supernatant fluid,[4]; 8.5 hr,12.660 mg/mL
same,percent remaining,[4]; 8.5 hr,47.221%
same,concentration in supernatant fluid,[4]; 24 hr,9.4700 mg/mL
same,percent remaining,[4]; 24 hr,35.323%
same,concentration in supernatant fluid,[4]; 55 hr,0.3300 mg/mL
same,percent remaining,"[4]; 55 hr, 3300 min",1.2309%
same,percent remaining,"[4]; 55 hr, listed as L-aspartic acid, 3300 min",1.23%
